Laboratory results from patent US20230346961A1, “GLP-1 AND GIP RECEPTOR CO-AGONISTS” (Novo Nordisk A/S, priority 2020, published 2023).
Starred links: 1 amine or outer side, 2 acyl side, 3 side chain; linkers in the order of their positions; H or OH if unused. Non-standard residues stand in square brackets, D forms with d. Residues, ends and D or L forms follow the SMILES beside them. Groups on a side chain read outwards from the residue. *: point of attachment. C20 diacid = O=C(O)CCCCCCCCCCCCCCCCCCC(=O)*; C18 diacid = O=C(O)CCCCCCCCCCCCCCCCC(=O)*; γGlu = O=C(O)[C@H](CCC(=O)[*:2])N[*:1]; εLys = N[C@@H](CCCCN[*:1])C(=O)[*:2]; Trx = NC[C@H]1CC[C@H](C(=O)O)CC1; AEEA = NCCOCCOCC(=O)O; Aib = CC(C)(N)C(=O)O

Tests used:
mouse GIP receptor = target: T1, mouse GIP receptor (Mus musculus, UniProt Q0P543); test: cell-based
T1 sequence (Q0P543 19-460): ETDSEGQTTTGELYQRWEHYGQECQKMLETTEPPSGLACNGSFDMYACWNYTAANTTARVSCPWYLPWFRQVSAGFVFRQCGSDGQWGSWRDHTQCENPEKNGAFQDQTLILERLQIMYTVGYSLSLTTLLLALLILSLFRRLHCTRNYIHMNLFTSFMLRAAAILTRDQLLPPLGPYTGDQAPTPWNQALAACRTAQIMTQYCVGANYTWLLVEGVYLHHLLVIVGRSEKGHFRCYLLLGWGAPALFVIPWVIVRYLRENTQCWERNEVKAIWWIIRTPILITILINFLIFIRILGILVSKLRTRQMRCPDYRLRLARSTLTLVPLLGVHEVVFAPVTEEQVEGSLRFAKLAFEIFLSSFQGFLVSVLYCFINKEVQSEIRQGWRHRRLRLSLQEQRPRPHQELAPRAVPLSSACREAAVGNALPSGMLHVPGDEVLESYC

mouse GLP-1 receptor = target: T2, mouse GLP-1 receptor (Mus musculus, UniProt O35659)
T2 sequence (O35659 22-463): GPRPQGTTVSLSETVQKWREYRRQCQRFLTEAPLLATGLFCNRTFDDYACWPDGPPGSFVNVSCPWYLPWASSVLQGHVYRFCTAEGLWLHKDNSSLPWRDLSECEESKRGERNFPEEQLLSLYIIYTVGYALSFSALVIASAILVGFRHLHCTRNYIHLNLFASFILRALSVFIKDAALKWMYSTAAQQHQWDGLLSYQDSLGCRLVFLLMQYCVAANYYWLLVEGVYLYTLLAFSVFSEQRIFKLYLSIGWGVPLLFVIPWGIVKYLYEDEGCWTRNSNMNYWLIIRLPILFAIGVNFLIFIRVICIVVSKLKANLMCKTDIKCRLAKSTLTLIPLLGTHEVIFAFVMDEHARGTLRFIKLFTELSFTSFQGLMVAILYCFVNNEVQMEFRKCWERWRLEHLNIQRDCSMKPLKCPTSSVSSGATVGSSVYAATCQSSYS
Experimental: The in vitro functional potency is the measure of target receptor activation in a whole cell assay.
In vitro functional potency was determined by measuring the response of the target receptor in a reporter gene assay in individual cell lines. […] When the respective receptor is activated, it results in the production of cAMP, which in turn results in expression of the luciferase protein. When assay incubation is completed, luciferase substrate (luciferin) is added resulting in the enzymatic conversion of luciferin to oxyluciferin and producing bioluminescence. The luminescence is measured as the readout for the assay.
The cells lines used in these assays were BHK cells with BHKTS13 as a parent cell line. The cell lines were derived from a clone containing the CRE luciferase element and were established by further transfection with the respective receptor to obtain the relevant cell line.
The cells were cultured at 37° C. with 5% CO2 in Cell Culture Medium. They were aliquoted and stored in liquid nitrogen. The cells were kept in continuous culture and were seeded out the day before each assay.
GLP-1R and GcgR Cell Culture Medium consisted of DMEM medium with 10% FBS, 500 μg/mL G418, and 300 μg/mL hygromycin. GIPR Cell Culture Medium consisted of DMEM medium with 10% FBS, 400 μg/mL G418, and 300 μg/mL hygromycin. Assay Buffer consisted of DMEM w/o phenol red, 10 mM Hepes, 1×Glutamax, 1% ovalbumin, and 0.1% Pluronic F-68 with the addition of HSA at twice the final assay concentration.
• 1) Cells were plated at 5000 cells/well and incubated overnight in the assay plate. • 2) Cells were washed once in DPBS. • 3) Stocks of the test compounds and reference compounds in concentrations ranging from 100-300 μM were diluted 1:150 in Assay Buffer. Compounds were then diluted 1:10 in column 1 of a 96 deep well dilution plate and then carried across the row creating a 3.5 fold, 12 point dilution curve. • 4) Assay Buffer (50 μl aliquot) with or without HSA was added to each well in the assay plate. • 5) A 50 μl aliquot of compound or blank was transferred from the dilution plate to the assay plate containing the Assay Buffer with or without HSA. • 6) The assay plate was incubated for 3 h in a 5% CO2 incubator at 37° C. 7) The cells were washed once with DPBS. • 8) A 100 μl aliquot of DPBS was added to each well of the assay plate. • 9) A 100 μl aliquot of steadylite plus reagent (light sensitive) was added to each well of the assay plate. • 10) Each assay plate was covered with aluminum foil to protect it from light and shaken at 250 RPM for 30 min at room temperature. • 11) Each assay plate was read in a microtiter plate reader.
The data from the microtiter plate reader was first regressed in an Excel in order to calculate the x-axis, log scale concentrations based on the individual test compound's stock concentration and the dilutions of the assay. […] The software performs a non-linear regression (log(agonist) vs response). A minimum of two replicates was measured for each sample. The reported values are averages of the replicates.

human GLP-1 receptor = human GLP-1 receptor (Homo sapiens, UniProt P43220); test: cell-based; settings: hGLP-1R
human GLP-1 receptor, sequence (P43220 24-463): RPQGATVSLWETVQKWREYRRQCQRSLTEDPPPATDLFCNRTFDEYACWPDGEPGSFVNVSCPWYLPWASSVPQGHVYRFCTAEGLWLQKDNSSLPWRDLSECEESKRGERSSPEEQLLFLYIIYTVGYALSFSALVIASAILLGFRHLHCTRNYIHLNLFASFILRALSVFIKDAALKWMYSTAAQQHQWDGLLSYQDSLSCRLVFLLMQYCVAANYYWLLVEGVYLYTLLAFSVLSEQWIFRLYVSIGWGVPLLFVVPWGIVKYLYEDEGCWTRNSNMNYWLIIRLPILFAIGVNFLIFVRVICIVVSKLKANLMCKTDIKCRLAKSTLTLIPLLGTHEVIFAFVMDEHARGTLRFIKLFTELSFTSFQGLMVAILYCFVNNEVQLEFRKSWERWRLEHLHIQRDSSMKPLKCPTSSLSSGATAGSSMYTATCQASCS

Row | Structure (SMILES) | EC50 (mouse GIP receptor) [nM] | EC50 (mouse GLP-1 receptor) [nM] | EC50 (human GLP-1 receptor; CRE Luc 0% HSA EC50, 0% HSA) [nM] | EC50 (human GLP-1 receptor; CRE Luc 1% HSA EC50, 1% HSA) [nM]
1 | CC[C@H](C)[C@H](NC(=O)[C@H](CO)NC(=O)[C@H](Cc1ccc(O)cc1)NC(=O)[C@H](CC(=O)O)NC(=O)[C@H](CO)NC(=O)[C@@H](NC(=O)[C@H](Cc1ccccc1)NC(=O)[C@@H](NC(=O)CNC(=O)[C@H](CCC(=O)O)NC(=O)C(C)(C)NC(=O)[C@@H](N)Cc1ccc(O)cc1)[C@@H](C)O)[C@@H](C)O)C(=O)N[C@@H](Cc1ccc(O)cc1)C(=O)N[C@@H](CC(C)C)C(=O)N[C@@H](CC(=O)O)C(=O)N[C@@H](CCCCN)C(=O)N[C@@H](CCC(N)=O)C(=O)N[C@@H](C)C(=O)N[C@@H](C)C(=O)NC(C)(C)C(=O)N[C@@H](CCC(=O)O)C(=O)N[C@@H](Cc1ccccc1)C(=O)N[C@H](C(=O)N[C@@H](CC(N)=O)C(=O)N[C@@H](Cc1c[nH]c2ccccc12)C(=O)N[C@@H](CC(C)C)C(=O)N[C@@H](CC(C)C)C(=O)N[C@@H](C)C(=O)NCC(=O)NCC(=O)N1CCC[C@H]1C(=O)N[C@@H](CO)C(=O)N[C@@H](CO)C(=O)NCC(=O)N[C@@H](C)C(=O)N1CCC[C@H]1C(=O)N1CCC[C@H]1C(=O)N1CCC[C@H]1C(=O)N[C@@H](CO)C(=O)N[C@@H](CCCCNC(=O)[C@@H](N)CCCCNC(=O)[C@@H](N)CCCCNC(=O)CC[C@H](NC(=O)CCCCCCCCCCCCCCCCC(=O)O)C(=O)O)C(N)=O)C(C)C [Compound 10] | 0.259 | 0.0021 | 0.0182 | 0.298
2 | CC[C@H](C)[C@H](NC(=O)[C@H](CO)NC(=O)[C@H](Cc1ccc(O)cc1)NC(=O)[C@H](CC(=O)O)NC(=O)[C@H](CO)NC(=O)[C@@H](NC(=O)[C@H](Cc1ccccc1)NC(=O)[C@@H](NC(=O)CNC(=O)[C@H](CCC(=O)O)NC(=O)C(C)(C)NC(=O)[C@@H](N)Cc1ccc(O)cc1)[C@@H](C)O)[C@@H](C)O)C(=O)N[C@@H](Cc1ccc(O)cc1)C(=O)N[C@@H](CC(C)C)C(=O)N[C@@H](CCC(=O)O)C(=O)N[C@@H](CCCCN)C(=O)N[C@@H](CCCCNC(=O)COCCOCCNC(=O)COCCOCCNC(=O)CC[C@H](NC(=O)CCCCCCCCCCCCCCCCCCC(=O)O)C(=O)O)C(=O)N[C@@H](C)C(=O)N[C@@H](C)C(=O)NC(C)(C)C(=O)N[C@@H](CCC(=O)O)C(=O)N[C@@H](Cc1ccccc1)C(=O)N[C@H](C(=O)N[C@@H](CC(N)=O)C(=O)N[C@@H](Cc1c[nH]c2ccccc12)C(=O)N[C@@H](CC(C)C)C(=O)N[C@@H](CC(C)C)C(=O)N[C@@H](C)C(=O)NCC(=O)NCC(=O)N1CCC[C@H]1C(=O)N[C@@H](CO)C(=O)N[C@@H](CO)C(=O)NCC(=O)N[C@@H](C)C(=O)N1CCC[C@H]1C(=O)N1CCC[C@H]1C(=O)N1CCC[C@H]1C(=O)N[C@@H](CO)C(N)=O)C(C)C [Compound 30] (H-Y[Aib]EGTFTSDYSIYLEKK([AEEA-AEEA-γGlu-C20 diacid])AA[Aib]EFVNWLLAGGPSSGAPPPS-NH2; N-terminus assumed) | 0.201 | 0.0019 | 0.0084 | 0.353
3 | CC[C@H](C)[C@H](NC(=O)[C@H](CO)NC(=O)[C@H](Cc1ccc(O)cc1)NC(=O)[C@H](CC(=O)O)NC(=O)[C@H](CO)NC(=O)[C@@H](NC(=O)[C@H](Cc1ccccc1)NC(=O)[C@@H](NC(=O)CNC(=O)[C@H](CCC(=O)O)NC(=O)C(C)(C)NC(=O)[C@@H](N)Cc1ccc(O)cc1)[C@@H](C)O)[C@@H](C)O)C(=O)N[C@@H](Cc1ccc(O)cc1)C(=O)N[C@@H](CC(C)C)C(=O)N[C@@H](CC(=O)O)C(=O)N[C@@H](CCCCN)C(=O)N[C@@H](CCC(N)=O)C(=O)N[C@@H](C)C(=O)N[C@@H](C)C(=O)NC(C)(C)C(=O)N[C@@H](CCCCNC(=O)COCCOCCNC(=O)COCCOCCNC(=O)CC[C@H](NC(=O)CCCCCCCCCCCCCCCCC(=O)O)C(=O)O)C(=O)N[C@@H](Cc1ccccc1)C(=O)N[C@H](C(=O)N[C@@H](CC(N)=O)C(=O)N[C@@H](Cc1c[nH]c2ccccc12)C(=O)N[C@@H](CC(C)C)C(=O)N[C@@H](CC(C)C)C(=O)N[C@@H](C)C(=O)NCC(=O)NCC(=O)N1CCC[C@H]1C(=O)N[C@@H](CO)C(=O)N[C@@H](CO)C(=O)NCC(=O)N[C@@H](C)C(=O)N1CCC[C@H]1C(=O)N1CCC[C@H]1C(=O)N1CCC[C@H]1C(=O)N[C@@H](CO)C(N)=O)C(C)C [Compound 5] (H-Y[Aib]EGTFTSDYSIYLDKQAA[Aib]K([AEEA-AEEA-γGlu-C18 diacid])FVNWLLAGGPSSGAPPPS-NH2; N-terminus assumed) | 0.523 | 0.0025 | 0.0092 | 0.161
4 | CC[C@H](C)[C@H](NC(=O)[C@H](CO)NC(=O)[C@H](Cc1ccc(O)cc1)NC(=O)[C@H](CC(=O)O)NC(=O)[C@H](CO)NC(=O)[C@@H](NC(=O)[C@H](Cc1ccccc1)NC(=O)[C@@H](NC(=O)CNC(=O)[C@H](CCC(=O)O)NC(=O)C(C)(C)NC(=O)[C@@H](N)Cc1ccc(O)cc1)[C@@H](C)O)[C@@H](C)O)C(=O)N[C@@H](Cc1ccc(O)cc1)C(=O)N[C@@H](CC(C)C)C(=O)N[C@@H](CCC(=O)O)C(=O)N[C@@H](CCCCN)C(=O)N[C@@H](CCC(N)=O)C(=O)N[C@@H](C)C(=O)N[C@@H](C)C(=O)NC(C)(C)C(=O)N[C@@H](CCCCNC(=O)[C@@H](N)CCCCNC(=O)[C@@H](N)CCCCNC(=O)CC[C@H](NC(=O)CCCCCCCCCCCCCCCCC(=O)O)C(=O)O)C(=O)N[C@@H](Cc1ccccc1)C(=O)N[C@H](C(=O)N[C@@H](CC(N)=O)C(=O)N[C@@H](Cc1c[nH]c2ccccc12)C(=O)N[C@@H](CC(C)C)C(=O)N[C@@H](CC(C)C)C(=O)N[C@@H](C)C(=O)NCC(=O)NCC(=O)N1CCC[C@H]1C(=O)N[C@@H](CO)C(=O)N[C@@H](CO)C(=O)NCC(=O)N[C@@H](C)C(N)=O)C(C)C [Compound 18] (H-Y[Aib]EGTFTSDYSIYLEKQAA[Aib]K([εLys-εLys-γGlu-C18 diacid])FVNWLLAGGPSSGA-NH2; N-terminus assumed) | 0.0243 | 0.002 | 0.0033 | 0.0899
5 | CC[C@H](C)[C@H](NC(=O)[C@H](CO)NC(=O)[C@H](Cc1ccc(O)cc1)NC(=O)[C@H](CC(=O)O)NC(=O)[C@H](CO)NC(=O)[C@@H](NC(=O)[C@H](Cc1ccccc1)NC(=O)[C@@H](NC(=O)CNC(=O)[C@H](CCC(=O)O)NC(=O)C(C)(C)NC(=O)[C@@H](N)Cc1ccc(O)cc1)[C@@H](C)O)[C@@H](C)O)C(=O)N[C@@H](Cc1ccc(O)cc1)C(=O)N[C@@H](CC(C)C)C(=O)N[C@@H](CCC(=O)O)C(=O)N[C@@H](CCCCN)C(=O)N[C@@H](CCC(N)=O)C(=O)N[C@@H](C)C(=O)N[C@@H](C)C(=O)NC(C)(C)C(=O)N[C@@H](CCCCNC(=O)COCCOCCNC(=O)COCCOCCNC(=O)CC[C@H](NC(=O)[C@H]1CC[C@H](CNC(=O)CCCCCCCCCCCCCCCCCCC(=O)O)CC1)C(=O)O)C(=O)N[C@@H](Cc1ccccc1)C(=O)N[C@H](C(=O)N[C@@H](CC(N)=O)C(=O)N[C@@H](Cc1c[nH]c2ccccc12)C(=O)N[C@@H](CC(C)C)C(=O)N[C@@H](CC(C)C)C(=O)N[C@@H](C)C(=O)NCC(=O)NCC(=O)N1CCC[C@H]1C(=O)N[C@@H](CO)C(=O)N[C@@H](CO)C(=O)NCC(=O)N[C@@H](C)C(N)=O)C(C)C [Compound 32] (H-Y[Aib]EGTFTSDYSIYLEKQAA[Aib]K([AEEA-AEEA-γGlu-Trx-C20 diacid])FVNWLLAGGPSSGA-NH2; N-terminus assumed) | 0.0802 | 0.0025 | 0.0117 | 0.221
6 | CC[C@H](C)[C@H](NC(=O)[C@H](CO)NC(=O)[C@H](Cc1ccc(O)cc1)NC(=O)[C@H](CC(=O)O)NC(=O)[C@H](CO)NC(=O)[C@@H](NC(=O)[C@H](Cc1ccccc1)NC(=O)[C@@H](NC(=O)CNC(=O)[C@H](CCC(=O)O)NC(=O)C(C)(C)NC(=O)[C@@H](N)Cc1ccc(O)cc1)[C@@H](C)O)[C@@H](C)O)C(=O)N[C@@H](Cc1ccc(O)cc1)C(=O)N[C@@H](CC(C)C)C(=O)N[C@@H](CC(=O)O)C(=O)N[C@@H](CCCCN)C(=O)N[C@@H](CCCCNC(=O)COCCOCCNC(=O)COCCOCCNC(=O)CC[C@H](NC(=O)CCCCCCCCCCCCCCCCC(=O)O)C(=O)O)C(=O)N[C@@H](C)C(=O)N[C@@H](C)C(=O)NC(C)(C)C(=O)N[C@@H](CCC(=O)O)C(=O)N[C@@H](Cc1ccccc1)C(=O)N[C@H](C(=O)N[C@@H](CC(N)=O)C(=O)N[C@@H](Cc1c[nH]c2ccccc12)C(=O)N[C@@H](CC(C)C)C(=O)N[C@@H](CC(C)C)C(=O)N[C@@H](C)C(=O)NCC(=O)NCC(=O)N1CCC[C@H]1C(=O)N[C@@H](CO)C(=O)N[C@@H](CO)C(=O)NCC(=O)N[C@@H](C)C(=O)N1CCC[C@H]1C(=O)N1CCC[C@H]1C(=O)N1CCC[C@H]1C(=O)N[C@@H](CO)C(N)=O)C(C)C [Compound 4] (H-Y[Aib]EGTFTSDYSIYLDKK([AEEA-AEEA-γGlu-C18 diacid])AA[Aib]EFVNWLLAGGPSSGAPPPS-NH2; N-terminus assumed) | 1.55 | 0.0039 | 0.0106 | 0.232
